Columns and labels:
[1] = Anticonvulsant activity against audiogenic seizures in DBA/2 mice expressed as ED50 values in clonic phase; Values ranges from: 22.0-35.1; assay type: functional; conditions: Mus musculus
[2] = Relative lipophilicity expressed as Rm value; assay type: physicochemical; conditions: octanol/water
[3] = Anticonvulsant activity against audiogenic seizures in DBA/2 mice expressed as ED50 values in tonic phase; Values ranges from: 16.1-31.5; assay type: functional; conditions: Mus musculus
[4] = Ratio between TD50 and ED50 from the clonic phase of audiogenic seizures in mice; assay type: ADME, organism-based; conditions: mouse, in vivo; read-out: Protective index
[5] = Toxic dose in DBA/2 mice; Values ranges from: 59.6-132; assay type: toxicity; conditions: DBA/2, mouse, in vivo
[6] = Toxic dose in DBA/2 mice; assay type: toxicity; conditions: DBA/2, mouse, in vivo
[7] = Anticonvulsant activity against audiogenic seizures in DBA/2 mice expressed as ED50 values in tonic phase; assay type: functional; conditions: Mus musculus
[8] = Anticonvulsant activity against audiogenic seizures in DBA/2 mice expressed as ED50 values in clonic phase; assay type: functional; conditions: Mus musculus
[9] = Ratio between TD50 and ED50 from the clonic phase of audiogenic seizures; assay type: ADME; conditions: read-out: Protective index
[10] = Toxic dose in DBA/2 mice; Values ranges from: 72.4-135; assay type: toxicity; conditions: DBA/2, mouse, in vivo
[11] = Anticonvulsant activity against audiogenic seizures in DBA/2 mice expressed as ED50 values in clonic phase; Values ranges from: 6.52-35.4; assay type: functional; conditions: Mus musculus
[12] = Toxic dose in DBA/2 mice; Values ranges from: 36.1-82.9; assay type: toxicity; conditions: DBA/2, mouse, in vivo
[13] = Anticonvulsant activity against audiogenic seizures in DBA/2 mice expressed as ED50 values in tonic phases; Values ranges from: 4.02-19.9; assay type: functional; conditions: Mus musculus
[14] = Toxic dose in DBA/2 mice; Values ranges from: 74.8-169; assay type: toxicity; conditions: DBA/2, mouse, in vivo
[15] = Anticonvulsant activity against audiogenic seizures in DBA/2 mice expressed as ED50 values in tonic phase; Values ranges from: 19.4-50.6; assay type: functional; conditions: Mus musculus
[16] = Anticonvulsant activity against audiogenic seizures in DBA/2 mice expressed as ED50 values in clonic phase; Values ranges from: 24.4-55.1; assay type: functional; conditions: Mus musculus

SMILES: Sc1nnc(-c2ccccc2)c2cc3c(cc12)OCO3
- ED50 [1]: 27.8 µmol/kg
- Rm [2]: 0.05
- ED50 [3]: 22.5 µmol/kg
- selectivity ratio [4]: 3.2
- TD50 [5]: 89 µmol/kg

SMILES: CCCNC(=O)n1nc(-c2ccc(N)cc2)c2cc3c(cc2c1=O)OCO3
- Rm [2]: -0.126
- TD50 [6]: 52.8 µmol/kg
- ED50 [7]: 6.82 µmol/kg
- ED50 [8]: 15.8 µmol/kg
- selectivity ratio [9]: 3.3

SMILES: Nc1ccc(C2=NNC(=O)Cc3cc4c(cc32)OCO4)cc1
- Rm [2]: -0.43
- TD50 [10]: 99.1 µmol/kg
- selectivity ratio [4]: 4.5

SMILES: CCCCCNC(=O)n1nc(-c2ccc(N)cc2)c2cc3c(cc2c1=O)OCO3
- Rm [2]: 0.101
- TD50 [6]: 56.6 µmol/kg
- ED50 [7]: 5.34 µmol/kg
- ED50 [8]: 13.2 µmol/kg
- selectivity ratio [9]: 4.3

SMILES: CCCCNC(=O)n1nc(-c2cccc(N)c2)c2cc3c(cc2c1=O)OCO3
- Rm [2]: 0.01
- TD50 [6]: 101 µmol/kg
- ED50 [7]: 22.4 µmol/kg
- ED50 [8]: 31.6 µmol/kg
- selectivity ratio [9]: 3.2

SMILES: Nc1ccc(-c2nnc(S)c3cc4c(cc23)OCO4)cc1
- ED50 [11]: 15.2 µmol/kg
- Rm [2]: -0.205
- TD50 [12]: 54.7 µmol/kg
- selectivity ratio [4]: 3.6
- ED50 [13]: 8.94 µmol/kg

SMILES: CNC(=O)n1nc(-c2ccc(N)cc2)c2cc3c(cc2c1=O)OCO3
- Rm [2]: -0.364
- TD50 [6]: 59.4 µmol/kg
- ED50 [7]: 16.8 µmol/kg
- ED50 [8]: 23.4 µmol/kg
- selectivity ratio [9]: 2.5

SMILES: Oc1nnc(-c2ccccc2)c2cc3c(cc12)OCO3
- Rm [2]: -0.158
- TD50 [14]: 112 µmol/kg
- ED50 [15]: 31.3 µmol/kg
- selectivity ratio [4]: 3.1
- ED50 [16]: 36.7 µmol/kg
